Columns and labels:
[1] = Cytotoxicity against human MCF-10A cells assessed as inhibition of cell growth incubated for 72 hrs by MTT assay; type: toxicity, cell-based
[2] = Selectivity ratio of IC50 for cytotoxicity against human MCF-10A cells assessed as inhibition of cell growth to IC50 for cytotoxicity against […] cells assessed as inhibition of cell growth; type: toxicity, cell-based; details: MCF-10A cells versus 4T1 cells, read-out: Ratio IC50
4T1 = experiment: Cytotoxicity against mouse 4T1 cells assessed as inhibition of cell growth incubated for 72 hrs by MTT assay; type: functional, cell-based; details: 4T1, 72 h
[3] = Selectivity ratio of IC50 for cytotoxicity against human MCF-10A cells assessed as inhibition of cell growth to IC50 for cytotoxicity against human MDA-MB-453 cells assessed as inhibition of cell growth; type: toxicity, cell-based; details: MCF-10A cells versus MDA-MB-453 cells, read-out: Ratio IC50
[4] = Selectivity ratio of IC50 for cytotoxicity against human HEK293 cells assessed as inhibition of cell growth to IC50 for cytotoxicity against human MDA-MB-231 cells assessed as inhibition of cell growth; type: toxicity, cell-based; details: HEK293 cells versus MDA-MB-231 cells, read-out: Ratio IC50
[5] = Selectivity ratio of IC50 for cytotoxicity against human HEK293 cells assessed as inhibition of cell growth to IC50 for cytotoxicity against mouse 4T1 cells assessed as inhibition of cell growth; type: toxicity, cell-based; details: HEK293 cells versus 4T1 cells, read-out: Ratio IC50
Histone deacetylase 3 = Histone deacetylase 3 (Homo sapiens, UniProt O15379); experiment: Inhibition of human recombinant HDAC3 at 1 uM measured after 30 mins by fluorescence based microplate assay relative to control
Histone deacetylase 3, sequence (O15379 whole entry): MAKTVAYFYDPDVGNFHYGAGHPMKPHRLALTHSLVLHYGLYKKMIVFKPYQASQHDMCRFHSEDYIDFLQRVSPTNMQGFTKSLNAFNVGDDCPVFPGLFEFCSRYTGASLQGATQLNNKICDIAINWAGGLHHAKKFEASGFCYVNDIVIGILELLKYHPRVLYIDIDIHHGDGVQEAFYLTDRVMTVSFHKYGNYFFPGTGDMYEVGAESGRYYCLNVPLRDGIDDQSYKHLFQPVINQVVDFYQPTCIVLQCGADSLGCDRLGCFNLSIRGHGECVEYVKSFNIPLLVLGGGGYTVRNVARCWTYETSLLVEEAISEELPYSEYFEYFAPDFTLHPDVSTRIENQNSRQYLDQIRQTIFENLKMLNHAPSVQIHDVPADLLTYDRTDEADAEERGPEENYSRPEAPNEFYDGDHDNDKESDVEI

[6] = Selectivity ratio of IC50 for cytotoxicity against human HCEC cells assessed as inhibition of cell growth to IC50 for cytotoxicity against human MCF7 cells assessed as inhibition of cell growth; type: toxicity, cell-based; details: HCEC cells versus MCF7 cells, read-out: Ratio IC50
[7] = Selectivity ratio of IC50 for cytotoxicity against human MCF-10A cells assessed as inhibition of cell growth to IC50 for cytotoxicity against human MDA-MB-231 cells assessed as inhibition of cell growth; type: toxicity, cell-based; details: MCF-10A cells versus MDA-MB-231 cells, read-out: Ratio IC50
[8] = Selectivity ratio of IC50 for cytotoxicity against human HEK293 cells assessed as inhibition of cell growth to IC50 for cytotoxicity against human MCF7 cells assessed as inhibition of cell growth; type: toxicity, cell-based; details: HEK293 cells versus MCF7 cells, read-out: Ratio IC50
[9] = Selectivity ratio of IC50 for cytotoxicity against human HEK293 cells assessed as inhibition of cell growth to IC50 for cytotoxicity against human MDA-MB-453 cells assessed as inhibition of cell growth; type: toxicity, cell-based; details: HEK293 cells versus MDA-MB-453 cells, read-out: Ratio IC50
[10] = Cytotoxicity against human HCEC cells assessed as inhibition of cell growth incubated for 72 hrs by MTT assay; type: toxicity, cell-based; details: human, HCEC cells
MDA-MB-231 = experiment: Cytotoxicity against human MDA-MB-231 cells assessed as inhibition of cell growth incubated for 72 hrs by MTT assay; type: functional, cell-based; details: MDA-MB-231, 72 h
[11] = Selectivity ratio of IC50 for cytotoxicity against human HCEC cells assessed as inhibition of cell growth to IC50 for cytotoxicity against mouse 4T1 cells assessed as inhibition of cell growth; type: toxicity, cell-based; details: HCEC cells versus 4T1 cells, read-out: Ratio IC50
MCF7 = experiment: Cytotoxicity against human MCF7 cells assessed as inhibition of cell growth incubated for 72 hrs by MTT assay; type: functional, cell-based; details: MCF7, 72 h
[12] = Selectivity ratio of IC50 for cytotoxicity against human HCEC cells assessed as inhibition of cell growth to IC50 for cytotoxicity against human MDA-MB-231 cells assessed as inhibition of cell growth; type: toxicity, cell-based; details: HCEC cells versus MDA-MB-231 cells, read-out: Ratio IC50
[13] = Selectivity ratio of IC50 for cytotoxicity against human MCF-10A cells assessed as inhibition of cell growth to IC50 for cytotoxicity against human MCF7 cells assessed as inhibition of cell growth; type: toxicity, cell-based; details: MCF-10A cells versus MCF7 cells, read-out: Ratio IC50
[14] = Cytotoxicity against human HEK293 cells assessed as inhibition of cell growth incubated for 72 hrs by MTT assay; type: toxicity, cell-based
MDA-MB-453 = experiment: Cytotoxicity against human MDA-MB-453 cells assessed as inhibition of cell growth incubated for 72 hrs by MTT assay; type: functional, cell-based; details: MDA-MB-453, 72 h
[15] = Selectivity ratio of IC50 for cytotoxicity against human HCEC cells assessed as inhibition of cell growth to IC50 for cytotoxicity against human MDA-MB-453 cells assessed as inhibition of cell growth; type: toxicity, cell-based; details: HCEC cells versus MDA-MB-453 cells, read-out: Ratio IC50

SMILES | IC50 at 72 h [1] [µM] | selectivity ratio [2] | IC50 (4T1) [µM] | selectivity ratio [3] | selectivity ratio [4] | selectivity ratio [5] | inhibition (Histone deacetylase 3) [%] | selectivity ratio [6] | selectivity ratio [7] | selectivity ratio [8] | selectivity ratio [9] | IC50 at 72 h [10] [µM] | IC50 (MDA-MB-231) [µM] | selectivity ratio [11] | IC50 (MCF7) [µM] | selectivity ratio [12] | selectivity ratio [13] | IC50 at 72 h [14] [µM] | IC50 (MDA-MB-453) [µM] | selectivity ratio [15]
CCCCNNC(=O)c1cnc(NCc2ccccc2)cn1 | 113 | > 40 | 1.6 | > 40 | > 40 | > 40 | > 70 | > 40 | > 40 | > 40 | > 40 | 129 | 132 | > 40 | 2.16 | > 40 | > 40 | 133 | 3.33 | > 40
CCCCNNC(=O)c1cnc(N)cn1 | 118 | > 40 | 1.27 | > 40 | > 40 | > 40 | – | > 40 | > 40 | > 40 | > 40 | 215 | 1.25 | > 40 | 1.81 | > 40 | > 40 | 133 | 3.33 | > 40
CCCNNC(=O)c1cnc(Nc2cccc3ccccc23)cn1 | 112 | > 40 | 0.94 | > 40 | > 40 | > 40 | – | > 40 | > 40 | > 40 | > 40 | 126 | 1.74 | > 40 | 1.51 | > 40 | > 40 | 116 | 2.89 | > 40
CCCCNNC(=O)c1cnc(N2CCCCC2)cn1 | 104 | – | 3.86 | – | – | – | – | – | – | – | – | 119 | 2.93 | – | 1.87 | – | – | 101 | 6.79 | –

From ChEMBL document CHEMBL5365457, “Selective HDAC3 Inhibitors with Potent In Vivo Antitumor Efficacy against Triple-Negative Breast Cancer” (J Med Chem, 2023)
